Article PMC9207812 (ACS chemical biology, 2022)
No end group written: not given here.

Legend:
Assay type in all cases: binding
WDR5 D172A [1] = molecular target: T1, WDR5 D172A (Homo sapiens, UniProt P61964, D172A); assay: Biolayer interferometry (BLI), D172A; details: for koff: pH 7.5, read-out: koff (dissociation rate constant); for kon: pH 7.5, read-out: kon (association rate constant)
WDR5 P216L [2] = molecular target: T2, WDR5 P216L (Homo sapiens, UniProt P61964, P216L); assay: Biolayer interferometry (BLI), P216L; details: for koff: pH 7.5, read-out: koff (dissociation rate constant); for kon: pH 7.5, read-out: kon (association rate constant)
WDR5 Y260H [3] = molecular target: T3, WDR5 Y260H (Homo sapiens, UniProt P61964, Y260H); assay: Biolayer interferometry (BLI), Y260H; details: for koff: pH 7.5, read-out: koff (dissociation rate constant); for kon: pH 7.5, read-out: kon (association rate constant)
WDR5 F133L [4] = molecular target: T4, WDR5 F133L (Homo sapiens, UniProt P61964, F133L); assay: Biolayer interferometry (BLI), F133L; details: for increase in KD-BLI: F133L versus native WDR5; for koff: pH 7.5, read-out: koff (dissociation rate constant); for kon: pH 7.5, read-out: kon (association rate constant)
WDR5 S175L [5] = molecular target: T5, WDR5 S175L (Homo sapiens, UniProt P61964, S175L); assay: Biolayer interferometry (BLI), S175L; details: for koff: pH 7.5, read-out: koff (dissociation rate constant); for kon: pH 7.5, read-out: kon (association rate constant)
WDR5 S218F [6] = molecular target: T6, WDR5 S218F (Homo sapiens, UniProt P61964, S218F); assay: Biolayer interferometry (BLI), S218F; details: for koff: pH 7.5, read-out: koff (dissociation rate constant); for kon: pH 7.5, read-out: kon (association rate constant)
WDR5 D172A [7] = molecular target: T1, WDR5 D172A; assay: Steady-state fluorescence polarization (FP), D172A
WDR5 P216L [8] = molecular target: T2, WDR5 P216L; assay: Steady-state fluorescence polarization (FP), P216L
WDR5 Y260H [9] = molecular target: T3, WDR5 Y260H; assay: Steady-state fluorescence polarization (FP), Y260H
WDR5 F133L [10] = molecular target: T4, WDR5 F133L; assay: Steady-state fluorescence polarization (FP), F133L
WDR5 S175L [11] = molecular target: T5, WDR5 S175L; assay: Steady-state fluorescence polarization (FP), S175L
WDR5 S218F [12] = molecular target: T6, WDR5 S218F; assay: Steady-state fluorescence polarization (FP), S218F

Compound	Kd (WDR5 D172A [1])	koff (WDR5 D172A [1])	kon (WDR5 D172A [1])	Kd (WDR5 P216L [2])	koff (WDR5 P216L [2])	kon (WDR5 P216L [2])	Kd (WDR5 Y260H [3])	koff (WDR5 Y260H [3])	kon (WDR5 Y260H [3])	Kd (WDR5 F133L [4])	Kd (WDR5 S175L [5])	koff (WDR5 S175L [5])	Kd (WDR5 S218F [6])	koff (WDR5 S218F [6])	Kd (WDR5 D172A [7])	Kd (WDR5 P216L [8])	Kd (WDR5 Y260H [9])	Kd (WDR5 F133L [10])	Kd (WDR5 S175L [11])	Kd (WDR5 S218F [12])	other results
LNPHGAARAEVYLS-NH2 [MLL4Win]	1.4 µM	0.051 ± 0.01 s⁻¹	37000 ± 4000 M⁻¹ s⁻¹	9.9 µM	0.22 ± 0.05 s⁻¹	19000 ± 3000 M⁻¹ s⁻¹		0.047 ± 0.028 s⁻¹	24000 ± 3000 M⁻¹ s⁻¹	≥ 100 µM	4.2 µM	0.13 ± 0.004 s⁻¹	3.4 µM	0.071 ± 0.001 s⁻¹	0.078 ± 0.003 µM	0.69 ± 0.06 µM	0.13 ± 0.01 µM	8.8 µM	0.28 ± 0.03 µM	0.42 ± 0.04 µM	koff (WDR5 F133L [4]): > 1 s⁻¹; kon (WDR5 S175L [5]): 30000 ± 1000 M⁻¹ s⁻¹; kon (WDR5 S218F [6]): 20000 ± 2000 M⁻¹ s⁻¹
CC(C)[C@H](NC(=O)[C@H](Cc1c[nH]cn1)NC(=O)[C@@H](N)CCC(=O)O)C(=O)N[C@H](C(=O)NCC(=O)N[C@@H](CS)C(=O)N[C@@H](C)C(=O)N[C@@H](CCCNC(=N)N)C(=O)N[C@@H](CO)C(=O)N[C@@H](CCC(=O)O)C(=O)NCC(=O)N[C@@H](Cc1ccccc1)C(=O)N[C@@H](Cc1ccc(O)cc1)C(=O)N[C@H](C(N)=O)[C@@H](C)O)[C@@H](C)O [SETd1BWin]	0.26 ± 0.01 µM	0.023 ± 0.003 s⁻¹	89000 ± 14000 M⁻¹ s⁻¹	0.37 ± 0.04 µM	0.03 ± 0.005 s⁻¹	80000 ± 8000 M⁻¹ s⁻¹	0.23 ± 0.01 µM	0.023 ± 0.003 s⁻¹	100000 ± 10000 M⁻¹ s⁻¹	6 µM	0.056 ± 0.003 µM	0.0049 ± 0.0003 s⁻¹	0.36 ± 0.02 µM	0.023 ± 0.002 s⁻¹	0.018 ± 0.001 µM	0.028 ± 0.002 µM	0.023 ± 0.002 µM	0.82 ± 0.03 µM	0.011 ± 0.001 µM	0.037 ± 0.001 µM	increase in KD-BLI (WDR5 F133L [4]): between one and two orders of magnitude; koff (WDR5 F133L [4]): 0.24 ± 0.02 s⁻¹; kon (WDR5 F133L [4]): 43000 ± 12000 M⁻¹ s⁻¹; kon (WDR5 S175L [5]): 84000 ± 6000 M⁻¹ s⁻¹; kon (WDR5 S218F [6]): 63000 ± 6000 M⁻¹ s⁻¹
LNPHGSARAEVHLS-NH2 [MLL1Win]	≥ 100 µM	> 1 s⁻¹		≥ 100 µM	> 1 s⁻¹		≥ 100 µM	> 1 s⁻¹			≥ 100 µM	> 1 s⁻¹	≥ 100 µM	> 1 s⁻¹	5.6 µM	> 14.6 µM	9.7 µM	> 53 µM	4.8 µM	8.1 µM	
EHQTGSARSEGYYP-NH2 [SETd1AWin]	0.9 ± 0.24 µM	0.11 ± 0.03 s⁻¹	130000 ± 10000 M⁻¹ s⁻¹	0.38 ± 0.02 µM	0.033 ± 0.004 s⁻¹	86000 ± 8000 M⁻¹ s⁻¹	1.1 µM	0.098 ± 0.029 s⁻¹	88000 ± 13000 M⁻¹ s⁻¹	30 µM	1.4 µM	0.089 ± 0.03 s⁻¹	0.83 ± 0.11 µM	0.046 ± 0.007 s⁻¹	0.061 ± 0.002 µM	0.039 ± 0.002 µM	0.14 ± 0.02 µM	5.7 µM	0.092 ± 0.007 µM	0.1 ± 0.01 µM	increase in KD-BLI (WDR5 F133L [4]): between one and two orders of magnitude; koff (WDR5 F133L [4]): 0.69 ± 0.04 s⁻¹; kon (WDR5 F133L [4]): 26000 ± 3000 M⁻¹ s⁻¹; kon (WDR5 S175L [5]): 61000 ± 7000 M⁻¹ s⁻¹; kon (WDR5 S218F [6]): 56000 ± 4000 M⁻¹ s⁻¹

Stronger by Kd (WDR5 D172A [1]), values ahead:

Kd (WDR5 D172A [1])	koff (WDR5 D172A [1])	kon (WDR5 D172A [1])	Kd (WDR5 P216L [2])	koff (WDR5 P216L [2])	kon (WDR5 P216L [2])	Kd (WDR5 Y260H [3])	koff (WDR5 Y260H [3])	kon (WDR5 Y260H [3])	Kd (WDR5 F133L [4])	Kd (WDR5 S175L [5])	koff (WDR5 S175L [5])	Kd (WDR5 S218F [6])	koff (WDR5 S218F [6])	Kd (WDR5 D172A [7])	Kd (WDR5 P216L [8])	Kd (WDR5 Y260H [9])	Kd (WDR5 F133L [10])	Kd (WDR5 S175L [11])	Kd (WDR5 S218F [12])	Compound	other results
0.14 ± 0.01 µM	0.0093 ± 0.0019 s⁻¹	65000 ± 13000 M⁻¹ s⁻¹	0.2 ± 0.03 µM	0.011 ± 0.003 s⁻¹	53000 ± 7000 M⁻¹ s⁻¹	0.11 ± 0.02 µM	0.0077 ± 0.0006 s⁻¹	64000 ± 2000 M⁻¹ s⁻¹	3.7 µM	0.33 ± 0.02 µM	0.016 ± 0.002 s⁻¹	0.53 ± 0.02 µM	0.021 ± 0.003 s⁻¹	0.012 ± 0.001 µM	0.019 ± 0.001 µM	0.022 ± 0.002 µM	1 µM	0.023 ± 0.001 µM	0.08 ± 0.007 µM	VNPTGCARSEPKMS-NH2 [MLL3Win]	increase in KD-BLI (WDR5 F133L [4]): between one and two orders of magnitude; koff (WDR5 F133L [4]): 0.1 ± 0.01 s⁻¹; kon (WDR5 F133L [4]): 36000 ± 21000 M⁻¹ s⁻¹; kon (WDR5 S175L [5]): 49000 ± 3000 M⁻¹ s⁻¹; kon (WDR5 S218F [6]): 39000 ± 5000 M⁻¹ s⁻¹
0.24 ± 0.01 µM	0.014 ± 0.001 s⁻¹	57000 ± 6000 M⁻¹ s⁻¹	0.2 ± 0.05 µM	0.011 ± 0.002 s⁻¹	56000 ± 8000 M⁻¹ s⁻¹	0.2 ± 0.02 µM	0.013 ± 0.001 s⁻¹	66000 ± 9000 M⁻¹ s⁻¹	8.3 µM	0.13 ± 0.01 µM	0.0063 ± 0.0001 s⁻¹	0.64 ± 0.02 µM	0.025 ± 0.002 s⁻¹	0.025 ± 0.004 µM	0.018 ± 0.003 µM	0.034 ± 0.004 µM	2.1 µM	0.011 ± 0.001 µM	0.094 ± 0.007 µM	INPTGCARSEPKIL-NH2 [MLL2Win]	increase in KD-BLI (WDR5 F133L [4]): between one and two orders of magnitude; koff (WDR5 F133L [4]): 0.14 ± 0.02 s⁻¹; kon (WDR5 F133L [4]): 16000 ± 1000 M⁻¹ s⁻¹; kon (WDR5 S175L [5]): 49000 ± 4000 M⁻¹ s⁻¹; kon (WDR5 S218F [6]): 40000 ± 2000 M⁻¹ s⁻¹
